# Data: article PMC12070314, “Efficient Small-Molecule Reversal Agents for Anticoagulant Fondaparinux” (ACS Pharmacology & Translational Science, 2025)
# How the values were obtained:
# [1] = tested on: freshly extracted mouse blood; test: Naked-eye ex vivo blood coagulation assay; format: cell-based; settings: 100 μM fond + 200 μM antidote, 5 min
# Method: Considering the results obtained in the in vitro assays, we aimed to test our molecules in a more relevant and challenging environment. To this aim, we performed naked-eye ex vivo coagulation assays (Figure ). Freshly extracted mouse blood samples were treated with fond (100 μM final concentration) in the absence and in the presence of different antidotes (two molar equivalents). Blood coagulation was visually inspected by the simple inversion of the vials. For a fair comparison between different series, all of the experiments were done in parallel with the corresponding control samples of untreated mouse blood (labeled “0” in Figure ). […] The effect of antidotes alone on blood coagulation was also tested (Figure B), showing that neither of the three small molecules appreciably changed the coagulation properties.
# This naked-eye coagulation test is an adaptation of the whole blood clotting time assay. , Freshly collected mouse blood was directly used without further treatment. 300 μL aliquots were dispensed in Eppendorf tubes, to which fondaparinux (100 μM), and/or potential antidotes (3AC, 3FF, ciraparantag, or protamine, 200 μM) were added, and a picture was taken after 5 min. Clot formation was verified by inverting the Eppendorf vials.
# [2] = tested on: FXa/ATIII inhibited by fondaparinux; test: In vitro FXa/ATIII enzymatic assay of anti-fondaparinux activity; format: biochemical, human; settings: for Restoration of FXa protease activity (hydrolysis rate of the peptide substrate): 15 μM fond + 9 or 15 μM antidote, HPLC
# Method: The activity of two spermine derivatives, 3AC and 3FF, as fond antidotes was evaluated with an in vitro enzymatic assay related to blood coagulation, as previously described (Figure A). , In brief, fond promotes a conformational change in ATIII toward an efficient inhibitor of FXa. Addition of a ligand of fond hinders the inhibitory action of ATIII restoring the FXa hydrolytic activity, which has been used as an indirect measurement of antifond behavior.
# Recombinant antithrombin III and coagulation factor Xa were obtained from two different kits, Berichrom Heparin test (SIEMENS) and Kinetichrome Anti-Xa Heparin kit (Iduron). Methods for both kits are similar, but not identical. Differences will be spotted by method A (SIEMENS) and method B (Iduron). Following the manufacturer’s instructions, stock solutions were prepared as follows: human antithrombin III (1 IU/mL) and factor Xa reagent (0.4 μg/mL, human plasma fraction with additives Tris, sodium chloride, and EDTA). Chromogenic substrate specific for factor Xa was dissolved at 4 mM concentration (A: Z-D-Leu-Gly-Arg-ANBA-methyl amide, and B: Z-D-Arg-Gly-Arg-pNA). Additionally, either 4-nitroaniline (A) or N-Boc-4-nitroaniline (B) was added to the substrate solution at a concentration of 1.6 mM and used as an internal standard to quantify the hydrolysis of the chromogenic substrate. All compounds were dissolved in Milli-Q water at the desired stock concentrations prior to start of the assays and kept at 4 °C. Various concentrations of the ligand, fondaparinux (up to 15 μM) or LMWH (0.1 to 10 μM), human antithrombin III solution (2 μL), and factor Xa reagent solution (35 μL) were consecutively added to an Eppendorf vial and brought to a total volume of 145 μL. Then, 20 μL of reagent substrate solution was added to start the experiment, and the mixture was vigorously shaken at 25 °C. 20 μL aliquots were taken at 5/10/15/20/30/50/80/120 minutes, diluted with 40 μL of acetic acid (20% v/v), and injected into the analytical HPLC system. The gradient ranged from 5% of ACN (0.1% formic acid) in water (0.1% formic acid) to 100% of ACN in 24 min using a 15 × 4.6 mm KROMAPHASE C18 5.0 μm column. In A: the retention time of cleaved chromophore was 9.1 min, retention time of chromogenic substrate was 13.9 min, and retention time of 4-nitroaniline was 15.4 min. In B: the retention time of chromogenic substrate was 11.0 min, retention time of cleaved chromophore was 15.2 min, and retention time of N-Boc-4-nitroaniline was 21.7 min. FXa/ATIII activity was represented as the percent of hydrolysis, which was calculated from the normalized area of the cleaved peptide at 405 nm at each corresponding time point. The experiment carried out in the absence of heparinoid was considered as the maximum of activity, while the experiment with heparinoid and no ligand was considered as negative control (maximum inhibition of FXa by heparinoid). The concentration of heparinoid was selected for the measurement to render significant inhibition within experimental time while allowing the reaction to proceed.
# fibroblasts = test: Resazurin cell viability assay; format: cell-based; settings: for Cell viability (toxicity): concentrations <100 μM, resazurin
# Method: (§1) A549 and HeLa cells were maintained in DMEM ([…] glucose, Sigma) containing 10% fetal calf serum (FCS), 2 mM glutamine, 50 U/mL penicillin, and […] streptomycin at 37 °C under a 5% CO2 atmosphere. HMEC-1 and fibroblast cells were maintained in MCDB 131 medium (GIBCO) containing 10% fetal calf serum (FCS), 2 mM glutamine, 50 U/mL penicillin, and […] streptomycin at 37 °C under a 5% CO2 atmosphere.
# (§2) The viability of HMEC-1 and fibroblast cells was tested using the resazurin assay. In it, exponentially growing cells were detached from the culture flasks using a trypsin–0.25% EDTA solution, and the cell suspension was seeded onto a 96-well plate (Nunclon) at a concentration of 9k cells/well. Toxicity of 3AC and 3FF was tested as follows: 72 h after seeding, culture medium was discarded and replaced by compound solution in PBS that was diluted with cell culture medium to the final concentration: [3××] = 10 to 100 μM. Resazurin (0.1 mg/mL) was added. After 2 h of incubation, fluorescence was measured (λex = 560 nm // λem = 590 nm) using a spectrophotometric BioTek Synergy 2 Microplate Reader (Agilent). Cell viability is expressed as an emission percent ratio of cells treated with the compound to untreated cells, which were used as a control. The results are the average from three independent experiments. In experiments with fondaparinux, the cells were incubated for 2 h with [fondaparinux] = 100 μM and [3××] = 50/100/200 μM following the same procedure for the rest of the protocol.
# HMEC-1 cells = test: Resazurin cell viability assay; format: cell-based; settings: for Cell viability (toxicity): HMEC-1, concentrations <100 μM, resazurin
# Method: as §1, §2
# [3] = [fond] = [antidote] = 15 μM, three reaction times
Compound,Reversal of fond anticoagulant effect (clot formation by vial inversion) [1],Restoration of FXa protease activity (hydrolysis rate of the peptide substrate) [2],"Percent recovery of peptide substrate hydrolysis ([2]; [fond] = 15 μM, lower antidote concentration (9 μM), Figure S2)","Percent recovery of peptide substrate hydrolysis [2, 3]","Cell toxicity in the presence of fondaparinux (fibroblasts; 100 μM fondaparinux, 50/100/200 μM compound)",Cell viability (toxicity) (fibroblasts),"Cell toxicity in the presence of fondaparinux (HMEC-1 cells; HMEC-1, 100 μM fondaparinux, 50/100/200 μM compound)",Cell viability (toxicity) (HMEC-1 cells)
Oc1ccccc1CNCCCNCCCCNCCCNCc1ccc2c(c1)Cc1ccccc1-2 [Compound 3AC],efficiently revert the drug effect,restore the FXa protease activity in a dose–response manner,higher potency,almost complete fast recovery up to the control values,reduced,low to acceptable cell toxicity,reduced,low to acceptable cell toxicity
Oc1ccc2ccccc2c1CNCCCNCCCCNCCCNCc1c(O)ccc2ccccc12 [Compound 3FF],efficiently revert the drug effect,restore the FXa protease activity in a dose–response manner,–,almost complete fast recovery up to the control values,–,low to acceptable cell toxicity,–,low to acceptable cell toxicity
